{"source": "paper PMC2724708", "about": "“Adenosine Kinase of T. b. rhodesiense Identified as the Putative Target of 4-[5-(4-phenoxyphenyl)-2H-pyrazol-3-yl]morpholine Using Chemical Proteomics” (PLoS Neglected Tropical Diseases, 2009)", "key": {"[1]": {"target": "T1, adenosine kinase of T. b. rhodesiense (TbrAK) (Trypanosoma brucei rhodesiense, UniProt Q584S0)", "T1 sequence (Q584S0 1-345)": "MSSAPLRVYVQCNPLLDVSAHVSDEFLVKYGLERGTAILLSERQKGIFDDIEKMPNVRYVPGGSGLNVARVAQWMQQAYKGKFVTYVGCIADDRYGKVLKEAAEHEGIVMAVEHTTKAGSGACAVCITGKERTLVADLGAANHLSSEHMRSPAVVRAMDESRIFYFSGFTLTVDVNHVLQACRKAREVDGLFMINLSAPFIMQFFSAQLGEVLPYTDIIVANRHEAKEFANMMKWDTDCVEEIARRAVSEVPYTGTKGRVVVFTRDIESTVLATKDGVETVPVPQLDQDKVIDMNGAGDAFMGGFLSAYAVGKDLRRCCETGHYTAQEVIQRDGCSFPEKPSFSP", "test": "Thermal stability assay (CD spectroscopy) regarding TbrAK", "assay_type": "binding", "conditions": "for Tm of TbrAK: 13 µM TbrAK", "method": "Thermal unfolding of TbrGAPDH and TbrAK was studied by circular dichroism (CD) spectroscopy at 220 nm within the temperature range of 20–90°C using a heating rate of 40°C/h.\n(§1) TbrAK in buffer E1 (20 mM Hepes, 150 mM NaCl, pH 7.0) was used at 0.5 mg/ml (final concentration 13 µM). All measurements were done in a 0.5 mm cell and contained 0.1 % DMSO and 2.5 mM EDTA to prevent enzyme activity. Thermal stability was analyzed in presence of 500 µM substrate to record the maximum stability limit, whereas compounds 1 to 5 were used at a concentration of 50 µM, being the highest concentration achievable for compound 2, to allow comparison of all compounds at the same concentration. For evaluation of the CD spectra, the buffer spectrum was subtracted from the protein CD spectrum. All thermal unfolding curves were fitted to a two-state model that had been published recently. The mean of three independent experiments are reported. […]"}, "[2]": {"target": "T1, adenosine kinase of T. b. rhodesiense (TbrAK)", "test": "Radiometric assay for kinetic study of TbrAK", "procedure": "(§2) Kinetic constants for adenosine phosphorylation by TbrAK were obtained by monitoring the conversion of [2-^3H]adenosine to [2-^3H]AMP. Reactions were executed at 37°C in a final volume of 30 µl containing 20 mM Hepes (pH 7.0), 50 mM NaCl, 167 µM ATP, 167 µM MgCl2, 0.34% BSA, and 0.34% DMSO. […] The concentration of [2-^3H]adenosine (0.1–12 µM) was chosen in consideration of Michaelis–Menten conditions for initial velocity measurements. The reaction was started by the addition of 1 ng (0.88 nM) TbrAK. The reactions were incubated and 5 µl aliquots were spotted on 5 mm diameter DE81-cellulose disks placed in a 96-well plate to stop the reaction. The disks were washed 3 times with 250 µl 5 mM ammonium formate, once with H2O, transferred to scintillation vials, and then soaked with 2 ml of a displacement solution (100 mM HCl, 200 mM KCl) and gently shaken for 1 minute to elute the phosphorylated products [9]. After adding 10 ml scintillation liquid, the samples were counted in scintillation counter. Km and Vmax with respect to adenosine and Ki for adenosine substrate-inhibition in absence and presence of compound 1 were determined by non-linear fit of the data to the substrate-inhibition model described elsewhere [10]."}, "[3]": {"target": "T1, adenosine kinase of T. b. rhodesiense (TbrAK)", "test": "HPLC activity assay for TbrAK", "assay_type": "biochemical", "conditions": "for activity at 50 µM: 37°C, ADP/ATP ratio, read-out: TbrAK activity in presence of compound (% of activity without compound); for concentration dependence of the activation effect: range 1–750 µM, up to solubility limit", "method": "TbrAK catalyzes the ATP-dependent phosphorylation of the 5′-hydroxyl moiety of adenosine to form AMP and ADP. The activity assay was based on HPLC separation of substrate and products (adenosine, AMP, ADP, and ATP). The mobile phase consisted of 35 mM KH2PO4, 6 mM tetrabutylammonium hydrogensulfate, (pH 7.0, adjusted with KOH), 125 mM EDTA, and 1% (v/v) acetonitrile. The separation was performed isocratically at a flow-rate of 1.5 ml/min and monitored at 254 nm. The standard reaction in 75 µl total volume containing 0.5 mM ATP, 0.5 mM adenosine, 0.5 mM MgCl2, 1% DMSO in buffer E1 (20 mM Hepes, 150 mM NaCl, pH 7.0) was started with the addition of 2 µg TbrAK (final concentration 0.7 µM) and incubated at 37°C for 10 min while shaking vigorously (600 rpm). […] All reactions were stopped by adding 75 µl mobile phase. 50 µl of the sample volume were injected for analysis and the resulting ADP/ATP ratios were calculated and used as a measure of activity. For comparative reasons the activity recorded in absence of compound was set to 100%. The mean of three independent measurements are reported."}, "[4]": {"test": "Solubility limit in the assay mixture", "assay_type": "physicochemical", "conditions": "HPLC activity assay mixture (buffer E1 with 1% DMSO), 37 °C, pH 7, aqueous buffer, kinetic from dmso stock, read-out: solubility limiting concentration"}, "[5]": {"parameters": "method as in PMID 17949068", "conditions": "cited from earlier work"}, "[6]": {"target": "T2, glycosomal T. b. rhodesiense glyceraldehyde-3-phosphate dehydrogenase (TbrGAPDH) (Trypanosoma brucei brucei, UniProt P22512)", "T2 construct": "made in house; host or cells: E. coli BL21(DE3), pET28a", "T2 sequence (P22512 whole entry)": "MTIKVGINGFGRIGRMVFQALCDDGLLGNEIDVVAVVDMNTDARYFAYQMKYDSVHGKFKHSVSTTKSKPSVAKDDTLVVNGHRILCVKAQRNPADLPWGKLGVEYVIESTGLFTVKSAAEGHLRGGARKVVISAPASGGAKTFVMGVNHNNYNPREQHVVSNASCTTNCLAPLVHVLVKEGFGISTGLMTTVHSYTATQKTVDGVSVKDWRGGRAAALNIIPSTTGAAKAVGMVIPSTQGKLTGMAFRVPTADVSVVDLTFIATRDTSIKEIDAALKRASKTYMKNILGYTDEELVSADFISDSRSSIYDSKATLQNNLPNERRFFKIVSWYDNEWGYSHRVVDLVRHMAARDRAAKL", "test": "Thermal stability assay (CD spectroscopy) regarding TbrGAPDH", "assay_type": "binding", "conditions": "for ∆Tm of TbrGAPDH: vs TbrGAPDH alone", "method": "Thermal unfolding of TbrGAPDH and TbrAK was studied by circular dichroism (CD) spectroscopy at 220 nm within the temperature range of 20–90°C using a heating rate of 40°C/h. […]\nAll measurements were done in a 0.5 mm cell and contained 0.1 %\nas §1, with “DMSO” for “TbrAK in buffer E1 (20 mM Hepes, 150 mM NaCl, pH 7.0) was used at 0.5 mg/ml (final concentration 13 µM). All measurements were done in a 0.5 mm cell and contained 0.1 % DMSO”"}, "[7]": {"test_system": "T. b. rhodesiense", "parameters": "method as in PMID 17949068", "conditions": "in vitro, blood stage parasite; read-out: IC50 against blood stage T.b. rhodesiense; cited from earlier work"}, "[8]": {"test_system": "bloodstream-form T. b. brucei TbAK RNAi cells", "test": "Drug sensitivity test (Alamar blue) on TbAK RNAi knock-down mutant", "assay_type": "cell-based", "method": "The construction of the T. b. brucei adenosine kinase gene knock-down mutant has been described recently. Expression of a stem-loop construct targeting TbAK was induced by addition of 10 µg/ml tetracycline to the medium. Down-regulation of TbAK expression was verified by Northern blotting. Parasites were cultivated and drug sensitivity was tested using the Alamar blue test. IC50 values were calculated by nonlinear fitting to the sigmoidal dose-response curve using Origin® software. The assays were performed in triplicates for at least four times."}, "[9]": {"substrate": "Nc1ncnc2c1ncn2[C@@H]1O[C@H](CO)[C@@H](O)[C@H]1O", "test": "purified protein, by the assay type", "conditions": "other: in absence of compound 1, 167 µM ATP; pH 7.0; 37.0 °C", "procedure": "as §2"}, "[10]": {"conditions": "50 µM compound, 0.7 µM TbrAK, 10 min"}}, "data": [{"molecule": "Nc1ncnc2c1ncn2[C@@H]1O[C@H](CO)[C@@H](O)[C@H]1O", "note": "[adenosine]", "values": [{"measurement": "ΔTm at 500 µM", "setting": "[1]; read-out: ΔTm of TbrAK", "value": 7.6, "unit": "°C"}, {"measurement": "Tm of TbrAK", "setting": "[1]; substrate at 500 µM", "value": "50.7±0.2", "unit": "°C"}, {"measurement": "Ki", "setting": "[2]", "value": "6.1 ± 1.4", "unit": "µM"}]}, {"molecule": "c1ccc(Oc2ccc(-c3cc(N4CCNCC4)[nH]n3)cc2)cc1", "note": "[compound 4]", "values": [{"measurement": "Tm of TbrAK", "setting": "[1]; compound at 50 µM", "value": "43.2±0.1", "unit": "°C"}, {"measurement": "ΔTm at 50 µM", "setting": "[1]; read-out: ΔTm of TbrAK", "value": 0.1, "unit": "°C"}, {"measurement": "activity at 50 µM", "setting": "[3]; [10]", "value": "109 ± 1", "unit": "%"}, {"measurement": "EC50", "setting": "[3]; 0.5 mM ATP, 0.5 mM adenosine, 0.7 µM TbrAK, read-out: EC50 of TbrAK activation (HPLC assay)", "value": "> 750", "unit": "µM"}, {"measurement": "fold increase of EC50 relative to compound 1", "setting": "[3]; HPLC assay", "value": "at least 20 fold"}, {"measurement": "concentration dependence of the activation effect", "setting": "[3]", "value": "concentration dependent"}, {"measurement": "solubility", "setting": "[4]", "value": 750, "unit": "µM"}, {"measurement": "cytotoxicity / general toxicity", "setting": "[5]", "value": "increased general toxicity"}, {"measurement": "Tm of TbrGAPDH", "setting": "[6]; compound at 50 µM", "value": "47.0 ± 0.1", "unit": "°C"}, {"measurement": "IC50", "setting": "[7]", "value": 1.1, "unit": "µM"}]}, {"molecule": "Nc1ccc(-n2nc(-c3ccc(Oc4ccccc4)cc3)cc2N2CCOCC2)cc1", "note": "[compound 3, 4-[5-morpholine-4-yl-3-(4-phenoxyphenyl)-pyrazol-1-yl]phenylamine]", "values": [{"measurement": "Tm of TbrAK", "setting": "[1]; compound at 50 µM", "value": "42.8±0.2", "unit": "°C"}, {"measurement": "ΔTm at 50 µM", "setting": "[1]; read-out: ΔTm of TbrAK", "value": -0.3, "unit": "°C"}, {"measurement": "activity at 50 µM", "setting": "[3]; [10]", "value": "110 ± 1", "unit": "%"}, {"measurement": "concentration dependence of the activation effect", "setting": "[3]", "value": "did not activate TbrAK"}, {"measurement": "Tm of TbrGAPDH", "setting": "[6]; compound at 50 µM", "value": "45.5 ± 0.6", "unit": "°C"}, {"measurement": "IC50", "setting": "[7]", "value": 10.3, "unit": "µM"}]}, {"molecule": "NC(=O)c1ccc[n+]([C@@H]2O[C@H](COP(=O)([O-])OP(=O)(O)OC[C@H]3O[C@@H](n4cnc5c(N)ncnc54)[C@H](O)[C@@H]3O)[C@@H](O)[C@H]2O)c1", "note": "[NAD+, reference compound]", "values": [{"measurement": "Tm of TbrGAPDH", "setting": "[6]; substrate at 500 µM", "value": "55.6 ± 0.2", "unit": "°C"}, {"measurement": "∆Tm of TbrGAPDH", "setting": "[6]; substrate at 500 µM", "value": 8.0, "unit": "°C"}]}, {"molecule": "Nc1ccc(Oc2ccc(-c3cc(N4CCOCC4)[nH]n3)cc2)cc1", "note": "[compound 2, 4-[4-(5-morpholine-4-yl-1H-pyrazol-3-yl)-phenoxy]phenylamine]", "values": [{"measurement": "Tm of TbrAK", "setting": "[1]; compound at 50 µM", "value": "45.9±0.4", "unit": "°C"}, {"measurement": "ΔTm at 50 µM", "setting": "[1]; read-out: ΔTm of TbrAK", "value": 2.8, "unit": "°C"}, {"measurement": "activity at 50 µM", "setting": "[3]; [10]", "value": "174 ± 5", "unit": "%"}, {"measurement": "fold induction at 50 µM", "setting": "[3]; 10 min, pH 7, 50 µM compound, read-out: fold increase of TbrAK activity", "value": 1.7}, {"measurement": "concentration dependence of the activation effect", "setting": "[3]", "value": "concentration dependent"}, {"measurement": "solubility", "setting": "[4]", "value": "≤ 50", "unit": "µM"}, {"measurement": "Tm of TbrGAPDH", "setting": "[6]; compound at 50 µM", "value": "47.0 ± 0.4", "unit": "°C"}, {"measurement": "IC50", "setting": "[7]", "value": 17.7, "unit": "µM"}]}, {"molecule": "c1ccc(Oc2ccc(-c3cc[nH]n3)cc2)cc1", "note": "[compound 5, 3-(4-phenoxyphenyl)-1H-pyrazole]", "values": [{"measurement": "Tm of TbrAK", "setting": "[1]; compound at 50 µM", "value": "43.4±0.1", "unit": "°C"}, {"measurement": "ΔTm at 50 µM", "setting": "[1]; read-out: ΔTm of TbrAK", "value": 0.3, "unit": "°C"}, {"measurement": "IC50 difference between induced and non-induced TbAK RNAi cells", "setting": "[8]", "value": "did not exhibit any IC50 difference"}, {"measurement": "activity at 50 µM", "setting": "[3]; [10]", "value": "102 ± 2", "unit": "%"}, {"measurement": "concentration dependence of the activation effect", "setting": "[3]", "value": "did not activate TbrAK"}, {"measurement": "IC50", "setting": "[5]; read-out: general toxicity IC50", "value": "> 136", "unit": "µM"}, {"measurement": "Tm of TbrGAPDH", "setting": "[6]; compound at 50 µM", "value": "46.7 ± 0.2", "unit": "°C"}, {"measurement": "IC50", "setting": "[7]", "value": "> 65", "unit": "µM"}]}, {"molecule": "Nc1ncnc2c1ncn2[C@@H]1O[C@H](COP(=O)(O)OP(=O)(O)OP(=O)(O)O)[C@@H](O)[C@H]1O", "note": "[ATP, reference compound]", "values": [{"measurement": "Tm of TbrAK", "setting": "[1]; substrate at 500 µM", "value": "42.8±0.1", "unit": "°C"}, {"measurement": "ΔTm of TbrAK", "setting": "[1]; substrate at 500 µM, vs apo TbrAK", "value": "−0.3", "unit": "°C"}]}, {"molecule": "O=CC(O)COP(=O)(O)O", "note": "(racemic) [DL-GAP, DL-glyceraldehyde-3-phosphate, reference compound]", "values": [{"measurement": "Tm of TbrGAPDH", "setting": "[6]; substrate at 500 µM", "value": "50.0 ± 0.7", "unit": "°C"}, {"measurement": "∆Tm of TbrGAPDH", "setting": "[6]; substrate at 500 µM", "value": 2.4, "unit": "°C"}]}, {"molecule": "adenosine kinase of T. b. rhodesiense (TbrAK) (Trypanosoma brucei brucei TREU927) (protein) MSSAPLRVYVQCNPLLDVSAHVSDEFLVKYGLERGTAILLSERQKGIFDDIEKMPNVRYVPGGSGLNVARVAQWMQQAYKGKFVTYVGCIADDRYGKVLKEAAEHEGIVMAVEHTTKAGSGACAVCITGKERTLVADLGAANHLSSEHMRSPAVVRAMDESRIFYFSGFTLTVDVNHVLQACRKAREVDGLFMINLSAPFIMQFFSAQLGEVLPYTDIIVANRHEAKEFANMMKWDTDCVEEIARRAVSEVPYTGTKGRVVVFTRDIESTVLATKDGVETVPVPQLDQDKVIDMNGAGDAFMGGFLSAYAVGKDLRRCCETGHYTAQEVIQRDGCSFPEKPSFSP", "values": [{"measurement": "Km", "setting": "[9]", "value": "0.99 ± 0.05", "unit": "µM"}]}]}
